Reference: the NIST ThermoML archive (doi:10.1016/j.jct.2019.01.028)
Numbers after ± are expanded uncertainties.

How the values were obtained:
[1] = xn = mol fraction of the nth substance listed; settings: transient hot wire
[2] = 100 kPa, Liquid, transient hot wire

F/C=C/C(F)(F)F [trans-1,3,3,3-tetrafluoropropene] + C=C(F)C(F)(F)F
[1], x1 = 0.5
Settings | thermal conductivity [W/m/K]
274.82 K, 1240 kPa, Liquid | 0.0766 ± 0.0025
294.69 K, 1080 kPa, Liquid | 0.0689 ± 0.0014
303.67 K, 2050 kPa, Liquid | 0.0679 ± 0.0015
303.96 K, 2960 kPa, Liquid | 0.0715 ± 0.0015
323.14 K, 2920 kPa, Liquid | 0.0633 ± 0.0013
324.62 K, 2070 kPa, Liquid | 0.0622 ± 0.0012
355.01 K, 940 kPa, Gas | 0.01929 ± 0.0004
375.04 K, 1740 kPa, Gas | 0.02197 ± 0.00045
375.09 K, 1010 kPa, Gas | 0.02168 ± 0.00045
393.98 K, 1860 kPa, Gas | 0.02321 ± 0.00048
394.38 K, 2520 kPa, Gas | 0.0246 ± 0.00051
414.22 K, 2920 kPa, Gas | 0.02633 ± 0.00053

F/C=C/C(F)(F)F [trans-1,3,3,3-tetrafluoropropene] + CC(F)(F)F
[1], x2 = 0.5
Settings | thermal conductivity [W/m/K]
264.94 K, 910 kPa, Liquid | 0.0772 ± 0.0015
285.99 K, 2120 kPa, Liquid | 0.0752 ± 0.0015
286.02 K, 1020 kPa, Liquid | 0.0742 ± 0.0015
304.35 K, 2020 kPa, Liquid | 0.069 ± 0.0014
304.36 K, 3040 kPa, Liquid | 0.0685 ± 0.0014
324.01 K, 2890 kPa, Liquid | 0.0624 ± 0.0012
345.02 K, 950 kPa, Gas | 0.01913 ± 0.0004
364.82 K, 1040 kPa, Gas | 0.02103 ± 0.00044
364.82 K, 1730 kPa, Gas | 0.02117 ± 0.00044
384.54 K, 1920 kPa, Gas | 0.02317 ± 0.00047
384.6 K, 2540 kPa, Gas | 0.02357 ± 0.00048
404.05 K, 2960 kPa, Gas | 0.02606 ± 0.00053

F/C=C/C(F)(F)F [trans-1,3,3,3-tetrafluoropropene] + FC(F)C(F)(F)F
[1], x2 = 0.5
Settings | thermal conductivity [W/m/K]
262.72 K, 1000 kPa, Liquid | 0.0781 ± 0.0016
285.7 K, 1080 kPa, Liquid | 0.0737 ± 0.0015
285.77 K, 2060 kPa, Liquid | 0.0738 ± 0.0015
304.23 K, 1940 kPa, Liquid | 0.0636 ± 0.0014
304.8 K, 3080 kPa, Liquid | 0.0688 ± 0.0015
324.33 K, 3020 kPa, Liquid | 0.0618 ± 0.0013
333.94 K, 1120 kPa, Gas | 0.01783 ± 0.00038
353.67 K, 1810 kPa, Gas | 0.01927 ± 0.0004
353.84 K, 1230 kPa, Gas | 0.01927 ± 0.0004
373.56 K, 2020 kPa, Gas | 0.02145 ± 0.00046
373.67 K, 3040 kPa, Gas | 0.02479 ± 0.00052
395.41 K, 3040 kPa, Gas | 0.02441 ± 0.00052

F/C=C/C(F)(F)F [trans-1,3,3,3-tetrafluoropropene] + FCC(F)(F)F
[1], x2 = 0.5
Settings | thermal conductivity [W/m/K]
274.68 K, 980 kPa, Liquid | 0.0884 ± 0.0018
305.14 K, 3140 kPa, Liquid | 0.0754 ± 0.0015
305.18 K, 1040 kPa, Liquid | 0.0739 ± 0.0015
305.22 K, 2040 kPa, Liquid | 0.0736 ± 0.0015
324.82 K, 2960 kPa, Liquid | 0.0627 ± 0.0013
326.02 K, 2030 kPa, Liquid | 0.0621 ± 0.0012
344.05 K, 870 kPa, Gas | 0.01922 ± 0.0004
364.05 K, 990 kPa, Gas | 0.02123 ± 0.00044
364.13 K, 2030 kPa, Gas | 0.02192 ± 0.00045
383.85 K, 2230 kPa, Gas | 0.02365 ± 0.00049
384.09 K, 3030 kPa, Gas | 0.02611 ± 0.00054
403.87 K, 3020 kPa, Gas | 0.02684 ± 0.00055

O [water]
[2]
Settings | thermal conductivity [W/m/K]
292.8 K | 0.6012 ± 0.0063
295.01 K | 0.605 ± 0.0063
303.13 K | 0.6184 ± 0.0065
303.93 K | 0.6193 ± 0.0065
305.47 K | 0.622 ± 0.0065
314.01 K | 0.6259 ± 0.0066
314.95 K | 0.6275 ± 0.0066
334.75 K | 0.6479 ± 0.0068
336.26 K | 0.6496 ± 0.0068
